SMILES strings stand for the structures.

Usually EC50 stands for the concentration that produces a half-maximal response. Low values mean an effect from little substance, high ones a need for much substance.

The target of this test is T1, hFXR (Homo sapiens, UniProt Q96RI1).
T1 construct: expressed in transfected cells; host or cells: CV-1 cells
T1 sequence (Q96RI1 1-486): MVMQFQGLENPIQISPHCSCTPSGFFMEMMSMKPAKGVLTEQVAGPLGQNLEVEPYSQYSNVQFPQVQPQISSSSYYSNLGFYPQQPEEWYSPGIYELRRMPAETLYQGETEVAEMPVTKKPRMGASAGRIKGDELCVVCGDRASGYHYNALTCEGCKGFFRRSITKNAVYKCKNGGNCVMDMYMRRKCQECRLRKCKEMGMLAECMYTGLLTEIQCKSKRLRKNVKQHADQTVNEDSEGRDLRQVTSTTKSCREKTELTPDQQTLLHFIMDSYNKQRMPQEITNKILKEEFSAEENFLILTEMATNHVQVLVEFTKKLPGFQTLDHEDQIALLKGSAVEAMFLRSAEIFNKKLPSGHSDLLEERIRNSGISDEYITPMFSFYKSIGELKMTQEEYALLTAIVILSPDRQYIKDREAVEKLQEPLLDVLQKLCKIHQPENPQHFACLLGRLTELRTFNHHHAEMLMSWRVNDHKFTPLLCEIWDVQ
T1 sequence (P19793 1-462 partner): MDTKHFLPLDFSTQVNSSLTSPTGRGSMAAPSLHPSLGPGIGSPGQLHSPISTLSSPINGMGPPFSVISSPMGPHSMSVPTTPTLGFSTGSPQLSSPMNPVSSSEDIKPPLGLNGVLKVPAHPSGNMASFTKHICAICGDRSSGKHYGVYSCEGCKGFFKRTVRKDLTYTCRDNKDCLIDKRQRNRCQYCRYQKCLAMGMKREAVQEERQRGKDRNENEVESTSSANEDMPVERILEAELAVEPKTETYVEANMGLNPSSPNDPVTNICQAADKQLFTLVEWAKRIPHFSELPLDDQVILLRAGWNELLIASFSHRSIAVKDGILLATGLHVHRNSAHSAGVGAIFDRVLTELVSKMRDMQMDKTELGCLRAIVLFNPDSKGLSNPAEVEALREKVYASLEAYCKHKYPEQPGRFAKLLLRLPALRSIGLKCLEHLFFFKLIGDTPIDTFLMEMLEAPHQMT
As to the kind of experiment: In Vitro FXR Assay (TK). Type of test: cell-based. Conditions: CV-1 cells transfected with hFXR, hRXR, TK-ECRE-luc and pCMX-YFP; compounds incubated 18 hrs; luminescence. The method, boiled down: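 Transiently transfected monkey CV-1 cells (hFXR, hRXR, TK-ECRE-luciferase, YFP control plasmid), held in stripped-serum DMEM, received compound dilutions from DMSO for 18 h at 37 °C. Activity was taken from luminescence of the cell lysates.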
For `COc1ccc(-c2ccc(CN(C(=O)CC(C)(C)C)c3nccc4cc(C)ccc34)cc2)cc1C` [Compound 12, N-((4′-Methoxy-3′-methyl-[1,1′-biphenyl]-4-yl)methyl)-3,3-dimethyl-N-(6-methylisoquinolin-1-yl)butanamide], the EC50 was ≤ 1000 nM. The figure for `COc1ccc(-c2ccc(CN(C(=O)CC(C)(C)C)c3nccc4ccc(C#N)cc34)cc2)cc1C` [Compound 13, N-(7-Cyanoisoquinolin-1-yl)-N-((4′-methoxy-3′-methyl-[1,1′-biphenyl]-4-yl)methyl)-3,3-dimethylbutanamide] is 1000 to 10000 nM. To `COc1ccc(-c2ccc(CN(C(=O)CC(C)(C)C)c3nccc4c(C#N)cccc34)cc2)cc1C` [Compound 13.02, N-(5-Cyanoisoquinolin-1-yl)-N-((4′-methoxy-3′-methyl-[1,1′-biphenyl]-4-yl)methyl)-3,3-dimethylbutanamide] belongs > 10000 nM. Consider `COc1ccc(-c2ccc(CN(C(=O)CC(C)(C)C)c3nccc4cc(-c5ncco5)ccc34)cc2)cc1C` [Compound 14, N-((4′-Methoxy-3′-methyl-[1,1′-biphenyl]-4-yl)methyl)-3,3-dimethyl-N-(6-(oxazol-2-yl)isoquinolin-1-yl)butanamide], for which the EC50 is ≤ 1000 nM. To `COc1ccc(-c2ccc(CN(C(=O)CC(C)(C)C)c3nccc4cc(-c5nccs5)ccc34)cc2)cc1C` [Compound 14.01, N-((4′-Methoxy-3′-methyl-[1,1′-biphenyl]-4-yl)methyl)-3,3-dimethyl-N-(6-(thiazol-2-yl)isoquinolin-1-yl)butanamide] belongs ≤ 1000 nM. For the compound `COc1ncc(-c2ccc3c(N(Cc4ccc(-c5ccc(OC)c(C)c5)cc4)C(=O)CC(C)(C)C)nccc3c2)s1` [Compound 15, N-((4′-Methoxy-3′-methyl-[1,1′-biphenyl]-4-yl)methyl)-N-(6-(2-methoxythiazol-5-yl)isoquinolin-1-yl)-3,3-dimethylbutanamide], the EC50 is 1000 to 10000 nM.

Compound `COc1cccc(-c2ccc3c(N(Cc4ccc(-c5ccc(OC)c(C)c5)cc4)C(=O)CC(C)(C)C)nccc3c2)n1` [Compound 15.01, N-((4′-Methoxy-3′-methyl-[1,1′-biphenyl]-4-yl)methyl)-N-(6-(6-methoxypyridin-2-yl)isoquinolin-1-yl)-3,3-dimethylbutanamide] displayed an EC50 of 1000 to 10000 nM.

For `COc1ccc(-c2ccc(CN(C(=O)CC(C)(C)C)c3nccc4cc(-c5ccccn5)ccc34)cc2)cc1C` [Compound 16, N-((4′-Methoxy-3′-methyl-[1,1′-biphenyl]-4-yl)methyl)-3,3-dimethyl-N-(6-(pyridin-2-yl)isoquinolin-1-yl)butanamide], the EC50 was ≤ 1000 nM. To `COc1ccc(-c2ccc(CN(C(=O)CC(C)(C)C)c3nccc4cc(C(C)(C)O)ccc34)cc2)cc1C` [Compound 17, N-(6-(2-Hydroxypropan-2-yl)isoquinolin-1-yl)-N-((4′-methoxy-3′-methyl-[1,1′-biphenyl]-4-yl)methyl)-3,3-dimethylbutanamide] belongs ≤ 1000 nM. The figure for `COc1ccc(-c2ccc(CN(C(C)=O)c3nccc4cc(C(C)(C)O)ccc34)cc2)cc1C` [Compound 18, N-(6-(2-Hydroxypropan-2-yl)isoquinolin-1-yl)-N-((4′-methoxy-3′-methyl-[1,1′-biphenyl]-4-yl)methyl)acetamide] is > 10000 nM; for `COc1ccc(-c2ccc(CN(C(=O)CC(C)(C)C)c3nccc4cc(C(=O)N(C)C)ccc34)cc2)cc1C` [Compound 19, 1-(N-((4′-Methoxy-3′-methyl-[1,1′-biphenyl]-4-yl)methyl)-3,3-dimethylbutanamido)-N,N-dimethylisoquinoline-6-carboxamide] it is ≤ 1000 nM; for `CNC(=O)c1ccc2c(N(Cc3ccc(-c4ccc(OC)c(C)c4)cc3)C(=O)CC(C)(C)C)nccc2c1` [Compound 19.01, 1-(N-((4′-Methoxy-3′-methyl-[1,1′-biphenyl]-4-yl)methyl)-3,3-dimethylbutanamido)-N-methylisoquinoline-6-carboxamide] it is 1000 to 10000 nM.

Source of the values: US20200131132A1, “FARNESOID X RECEPTOR AGONISTS AND USES THEREOF” (Metacrine, Inc., priority 2017, published 2020).
